# Measurements taken from patent publication US5496808A (priority 1991, dated 1996).
# Like-named read-outs stand apart in the source and are kept apart here.
# Legend:
# [1] = tested on: LoVo (colon adenocarcinama); test: cells; type: cell-based, human; conditions: for IC50: Homo sapiens, read-out: Cytotoxicity IC50 LoVo
# Source text: (§1) Colony assay: 4 hr treatment
# (§2) ^(1) IC50 = concentration inhibiting 50% of colony formation
# [2] = tested on: LoVo/DX (colon adenocarcinoma resistant to Doxorubicin); test: cells; conditions: for IC50: Homo sapiens, 4 h, read-out: Cytotoxicity IC50 LoVo/DX
# Source text: as §1, §2
# ^(2) R.I. = Resistance Index = (IC50 LoVo/DX)(IC50 LoVo)
# [3] = tested on: Disseminated P388/DX Johnson Leukemia; test: Antitumor activity "in vivo" against disseminated P388/DX Johnson leukemia, resistant to Doxorubicin; set-up: species or system murine
# Method: ^(7) 10^5 cell/mouse were injected i.v. on day 0.
# (§3) ^(4) Compounds were suspended in Tween 80 10% and injected i.p. one
# (§4) day after tumor transplantation.
# (§5) ^(5) Median survival time of treated mice/Median survival time of
# (§6) ^(6) No. of toxic deaths/total No. of mice.
# Ascitic P388 Leukemia = test: Antitumor activity "in vivo" against ascitic P388 leukemia, sensitive to Doxorubicin; set-up: species or system murine
# Method: ^(3) 10^6 cell/mouse were injected i.p. on day 0.
# as §3, §4, §5, §6
# [4] = 1.9 mg/kg i.p. one day after tumor transplantation
# [5] = 2.5 mg/kg i.p. one day after tumor transplantation
# [6] = 0.33 mg/kg i.p. one day after tumor transplantation
# [7] = 0.5 mg/kg i.p. one day after tumor transplantation
# [8] = 0.75 mg/kg i.p. one day after tumor transplantation
# [9] = 22.0 mg/kg i.p. one day after tumor transplantation
# [10] = 10.0 mg/kg i.p. one day after tumor transplantation
# [11] = 15.0 mg/kg i.p. one day after tumor transplantation
# [12] = 1.2 mg/kg i.p. one day after tumor transplantation
# [13] = 1.6 mg/kg i.p. one day after tumor transplantation
# [14] = 2.1 mg/kg i.p. one day after tumor transplantation
# [15] = 2.8 mg/kg i.p. one day after tumor transplantation
# [16] = 3.7 mg/kg i.p. one day after tumor transplantation
# [17] = 1.0 mg/kg i.p. one day after tumor transplantation
# [18] = 1.4 mg/kg i.p. one day after tumor transplantation
# [19] = 2.0 mg/kg i.p. one day after tumor transplantation
smiles,measurement,setting,value
CC(=O)[C@]1(O)Cc2c(O)c3c(c(O)c2[C@@H](O[C@H]2C[C@H](N)[C@H](O)[C@H](C)O2)C1)C(=O)c1ccccc1C3=O [4-demethoxydaunorubicin],IC50,[1]; 4 h,0.004 µg/mL
same,IC50,[2]; LoVo/DX,0.048 µg/mL
same,R.I. = Resistance Index (IC50 LoVo/DX)(IC50 LoVo),"[2]; human, lovo/dx vs lovo, 240 min",12.0
same,T/C (median survival time of treated mice/controls × 100),[3]; [4],106%
same,TOX,[3]; [4],0/10
same,T/C (median survival time of treated mice/controls × 100),[3]; [5],89%
same,TOX,[3]; [5],0/10
same,T/C (median survival time of treated mice/controls × 100),Ascitic P388 Leukemia; [6],142%
same,TOX,Ascitic P388 Leukemia; [6],0/27
same,T/C (median survival time of treated mice/controls × 100),Ascitic P388 Leukemia; [7],160%
same,TOX,Ascitic P388 Leukemia; [7],0/28
same,T/C (median survival time of treated mice/controls × 100),Ascitic P388 Leukemia; [8],163%
same,TOX,Ascitic P388 Leukemia; [8],4/28
"COc1cccc2c1C(=O)c1c(O)c3c(c(O)c1C2=O)C[C@@](O)(C(=O)CO)C[C@@H]3O[C@H]1C[C@H](N)[C@H](O)[C@H](C)O1 [Doxorubicin, doxorubicin]",IC50,[1]; colony assay: 4 hr treatment,0.0825 µg/mL
same,IC50,[2]; LoVo/DX,4.98 µg/mL
same,TOX,[3]; 16.9 mg/kg i.p. one day after tumor transplantation,0/6
same,T/C (median survival time of treated mice/controls × 100),[3]; [9],94%
same,TOX,[3]; [9],3/6
same,T/C (median survival time of treated mice/controls × 100),Ascitic P388 Leukemia; [10],299%
same,TOX,Ascitic P388 Leukemia; [10],0/10
same,T/C (median survival time of treated mice/controls × 100),Ascitic P388 Leukemia; [11],90%
same,TOX,Ascitic P388 Leukemia; [11],3/6
"CC(=O)[C@]1(O)Cc2c(O)c3c(c(O)c2[C@@H](O[C@H]2C[C@H](N(CCCl)CCCl)[C@H](OS(C)(=O)=O)[C@H](C)O2)C1)C(=O)c1ccccc1C3=O [compound 1h, 4-demethoxy-4'-O-methansulfonyl-N,N-bis(2-chloroethyl)daunorubicin]",Cytotoxicity IC50 LoVo,[1]; colony assay: 4 hr treatment,0.0043 µg/mL
same,R.I. = Resistance Index (IC50 LoVo/DX)(IC50 LoVo),"[2]; LoVo/DX versus LoVo, colony assay: 4 hr treatment",3.3
same,Cytotoxicity IC50 LoVo/DX,"[2]; LoVo/DX, colony assay: 4 hr treatment",0.014 µg/mL
same,activity on the doxorubicin-resistant cell line compared with 4-demethoxydaunorubicin and Doxorubicin,"[2]; LoVo/DX, in comparison with 4-demethoxydaunorubicin (3b) and Doxorubicin (3c)",striking higher activity
same,T/C (median survival time of treated mice/controls × 100),[3]; [12],133%
same,TOX,[3]; [12],0/6
same,T/C (median survival time of treated mice/controls × 100),[3]; [13],144%
same,TOX,[3]; [13],0/6
same,T/C (median survival time of treated mice/controls × 100),[3]; [14],185%
same,TOX,[3]; [14],0/6
same,T/C (median survival time of treated mice/controls × 100),[3]; [15],220%
same,TOX,[3]; [15],0/6
same,T/C (median survival time of treated mice/controls × 100),[3]; [16],250%
same,TOX,[3]; [16],0/6
same,activity when tested on resistant Leukemia,[3]; P388 resistant to Doxorubicin (Johnson),high activity
same,T/C (median survival time of treated mice/controls × 100),Ascitic P388 Leukemia; [17],184%
same,TOX,Ascitic P388 Leukemia; [17],0/12
same,T/C (median survival time of treated mice/controls × 100),Ascitic P388 Leukemia; [18],217%
same,TOX,Ascitic P388 Leukemia; [18],0/6
same,T/C (median survival time of treated mice/controls × 100),Ascitic P388 Leukemia; [19],233%
same,TOX,Ascitic P388 Leukemia; [19],1/6
same,T/C (median survival time of treated mice/controls × 100),Ascitic P388 Leukemia; [15],78%
same,TOX,Ascitic P388 Leukemia; [15],6/6
